Tests used:
Slc-ddy male mice = test: Activity on hypoxia induced in decapitation of mice (gasping time); format: in vivo; parameters: dose or concentration left out as unconfirmed; details: gasping time after decapitation, one hour after oral administration
Procedure: In each group, 3 Slc-ddy male mice (4 weeks) were employed. Each test compound was suspended or dissolved in a 0.5 % methyl cellulose solution. After the concentration was adjusted, the dose became […], the solution was administered orally. One hour after the administration, mice were decapitated and gasping time was measured.
(§1) Inhibition rate was calculated by the following formula. [formula]

[1] = system: Aortae abdominalis of male Wister rats; test: Anti-norepinephrine activity on rat abdominal aorta strip preparations (auto-Magnus apparatus); details: tension by norepinephrine (10⁻⁷M) regarded as 100
Procedure: Aortae abdominalis of male Wister rats (8-12 weeks) were delivered and cut in spiral-shape to be strip preparations. Each test compounds was disolved in DMSO. Then, the solution was diluted with distilled water and prepared to be desired concentration. Using an auto-Magnus apparatus, as to the vasoconstriction after adding norepinephrine, contractive forces were measured under the existence of the test compounds.

platelet aggregation = test: Inhibitory activity on platelet aggregation (turbidimetry); format: cell-based, New Zealand White male rabbits; details: for Inhibition rate (%) ADP aggregation: 0.6 µg/mℓ ADP; for Inhibition rate (%) PAF aggregation: 5 x 10⁻⁹M PAF; for Inhibition rate (%) Collagen aggregation: 2 µg/mℓ collagen
Procedure: Blood was exsanguinated from New Zealand White male rabbits weighing from 2.5 to 3.0 kg and subjected to the test. Each test compound was dissolved in ethanol and prepared to be 1 x 10⁻⁵, 1 x 10⁻⁶ or 1 x 10⁻⁷M respectively. Each aggregation response was measured by turbidimetry. Concentration of aggregating agent was 2 µg/mℓ of collagen, 0.6 µg/mℓ of adenosine 5'-diphosphate (ADP) or 5 x 10⁻⁹M of platelet aggregating factor (PAF).
as §1

Slc: ddy male mice [2] = test: Activity on stress ulcers (restraint and water immersion); format: in vivo; details: length of ulcer in glandular stomach; 30 mg/kg orally; restrained and immersed in water of 23°C for 7 hours
Procedure: In each group, 5 Slc: ddy male mice (6 weeks) were employed. Each test compound was kneaded with Tween-80 followed by adding a 0.5 % solution of gum arabic to prepare 30 mg/10 mℓ solution (solution containing 1.5 % Tween-80 and 0.5 % gum arabic). Then, the preparation was administered orally in a rate of 30 mg/kg. After the administration, the mice were restrained and immersed in a water tank of 23°C for 7 hours. Then, length of the ulcer in the glandular stomach was measured by a stereoscopic microscope (x 10).

Slc: ddy male mice [3] = test: Acute toxicity; format: in vivo; details: oral administration, death rate after 7 days
Procedure: (§2) In each group, 6 Slc: ddy male mice weighing 25 to 29 g (6 weeks) were employed. Each compound was administered orally thereto and a value of acute toxicity was evaluated with death rate after 7 days.

Acute toxicity = format: in vivo, mice; details: mouse, in vivo; oral administration, death rate after 7 days; read-out: LD₅₀
Procedure: as §2

Row | Compound | Inhibition rate (%) (Slc-ddy male mice) | Contractive force ([1]; compound 10⁻⁷ M) | Contractive force ([1]; compound 10⁻⁸ M) | Contractive force ([1]; compound 10⁻⁹ M) | Inhibition rate (%) ADP aggregation (platelet aggregation; compound 10⁻⁵ M) | Inhibition rate (%) PAF aggregation (platelet aggregation; compound 10⁻⁵ M) | Inhibition rate (%) ADP aggregation (platelet aggregation; compound 10⁻⁶ M) | Inhibition rate (%) Collagen aggregation (platelet aggregation; compound 10⁻⁶ M) | Inhibition rate (%) ADP aggregation (platelet aggregation; compound 10⁻⁷ M) | Inhibition rate (%) Collagen aggregation (platelet aggregation; compound 10⁻⁷ M) | Inhibition rate (%) (Slc: ddy male mice [2]) | LD₅₀ (Slc: ddy male mice [3]) | LD50 at 168 h (Acute toxicity)
1 | 2,6-dimethyl-4-(3-ethynylphenyl)-3-methoxycarbonyl-5-{4-(6-oxo-1,4,5,6-tetrahydropyridazinon-3-yl)phenyl}aminocarbonyl-1,4-dihydropyridine [Compound 1] | 28.6% | 15.7 | 87.4 | 102.8 | 94% | 64% | 70% | 94% | 21% | 21% | 83.0% | 1000 mg/kg | 
2 | 2,6-dimethyl-4-{3-(3-hydroxy-3-methyl)-1-butyn-1-yl)}phenyl-3-methoxycarbonyl-5-{4-(6-oxo-1,4,5,6-tetrahydropyridazinon-3-yl)phenyl}aminocarbonyl-1,4-dihydropyridine [Compound 7] | 19.1% | 16.3 | 89.2 | 100.3 | 89% | 40% | 73% | 92% | 24% | 25% | 88.8% | 800 mg/kg | 
3 | 2,6-dimethyl-4-{3-(4-hydroxy-1-butyn-1-yl)}phenyl-3-methoxycarbonyl-5-{4-(6-oxo-1,4,5,6-tetrahydropyridazinon-3-yl)phenyl}aminocarbonyl-1,4-dihydropyridine [Compound 6] | 21.5% | 10.8 | 70.2 | 90.5 | 93% | 69% | 68% | 93% | 22% | 22% |  | 950 mg/kg | 
4 | CCOC(=O)C1=C(C)NC(C)=C(C(=O)Nc2ccc(C3=NNC(=O)CC3)cc2)C1c1cc(C#CC(C)(C)O)ccc1OC (centres unmarked) [Compound 17, 2,6-dimethyl-4-{3-(3-hydroxy-3-methyl)-1-butyn-1-yl-6-methoxy}phenyl-3-ethoxycarbonyl-5-{4-(6-oxo-1,4,5,6-tetrahydropyridazinon-3-yl)phenyl}aminocarbonyl-1,4-dihydropyridine] | 25.8% | 8.9 | 70.1 | 87.7 | 82% | 49% | 62% | 100% | 18% | 30% | 79.3% |  | 1000 mg/kg
5 | C#Cc1cccc(C2C(C(=O)Nc3ccc(C4=NNC(=O)CC4CC)cc3)=C(C)NC(N)=C2C(=O)OCCOC)c1 (centres unmarked) [Compound 25, 2-amino-4-(3-ethynylphenyl)-3-methoxyethoxycarbonyl-6-methyl-5-{4-(4-ethyl-6-oxo-1,4,5,6-tetrahydropyridazinon-3-yl)phenyl}aminocarbonyl-1,4-dihydropyridine] | 28.3% | 12.1 | 70.9 | 91.5 | 90% | 62% | 69% | 91% | 29% | 30% | 94.3% |  | 1000 mg/kg

From patent EP0503079A1, “PYRIDAZINONE-SUBSTITUTED ETHYNYLPHENYL DERIVATIVE AND REMEDY FOR CIRCULATORY ORGAN DISEASE CONTAINING THE SAME AS ACTIVE INGREDIENT” (KAKEN PHARMACEUTICAL CO., LTD., priority 1990, dated 1992)
